In this assay the test system is BDF1 mice, s.c. Lewis lung carcinoma, T/C %. The assay is described as follows: NCI In Vivo Anticancer Drug Screen. Data for tumor model Lewis Lung Carcinoma (subcutaneous) in B6D2F1 (BDF1) mice. In short, it runs like this:
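First, mice carry a transplantable tumor. Next, groups receive either compound or vehicle. Finally, survival or tumor dimensions in the dosed animals are divided by the corresponding control figure.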

Where [1] appears, read: endpoint: mean tumor weight, dose: 3.13 mg/kg/injection, schedule: Q01DX011 (ip), vehicle: saline, higher = larger tumour.
Where [2] appears, read: endpoint: mean tumor weight, dose: 6.25 mg/kg/injection, schedule: Q01DX011 (ip), vehicle: saline, higher = larger tumour.
The mark [3] stands for this setting: endpoint: mean tumor weight, dose: 12.5 mg/kg/injection, schedule: Q01DX011 (ip), vehicle: saline, higher = larger tumour.

“And” between values parts separate entries of the source, which are not always exact repeats. Equal entries are not always repeated. Inconclusive results are not listed.

With `O=NN(CCCl)C(=O)NCCCl`, the T/C runs as follows: (endpoint: mean tumor weight, dose: 1.57 mg/kg/injection, schedule: Q01DX011 (ip), vehicle: saline, higher = larger tumour) 78 % of control; under setting [1], 56 % of control; (endpoint: mean tumor weight, dose: 4.0 mg/kg/injection, schedule: Q01DX011 (ip), vehicle: other, higher = larger tumour) 41 % of control; under setting [2], 4 % of control and 14 % of control; under setting [3], 3 % of control; (endpoint: median survival time, dose: 0.5 mg/kg/injection, schedule: Q08HX024 (ip), vehicle: Klucel (hydroxypropylcellulose) (HPC), higher = longer survival) 90 % of control. Further, the T/C reads like this: (endpoint: median survival time, dose: 1.0 mg/kg/injection, schedule: Q08HX024 (ip), vehicle: Klucel (hydroxypropylcellulose) (HPC), higher = longer survival) 91 % of control; (endpoint: median survival time, dose: 5.0 mg/kg/injection, schedule: Q01DX001 (ip), vehicle: Klucel (hydroxypropylcellulose) (HPC), higher = longer survival) 108 % of control; (endpoint: median survival time, dose: 5.0 mg/kg/injection, schedule: Q01DX001 (ip), vehicle: saline + alcohol, higher = longer survival) 100 % of control and 104 % of control; (endpoint: median survival time, dose: 5.0 mg/kg/injection, schedule: Q01DX001 (ip), vehicle: saline with Tween-80, higher = longer survival) 113 % of control; (endpoint: median survival time, dose: 6.7 mg/kg/injection, schedule: Q01DX005 (ip), vehicle: saline + alcohol, higher = longer survival) 113 % of control; (endpoint: median survival time, dose: 10.0 mg/kg/injection, schedule: Q01DX001 (ip), vehicle: Klucel (hydroxypropylcellulose) (HPC), higher = longer survival) 120 % of control. Moreover, the T/C runs as follows: (endpoint: median survival time, dose: 10.0 mg/kg/injection, schedule: Q01DX001 (ip), vehicle: saline + alcohol, higher = longer survival) 96 % of control and 116 % of control; (endpoint: median survival time, dose: 10.0 mg/kg/injection, schedule: Q01DX001 (ip), vehicle: saline with Tween-80, higher = longer survival) 99 % of control and 102 % of control; (endpoint: median survival time, dose: 13.0 mg/kg/injection, schedule: Q01DX001 (ip), vehicle: saline + alcohol, higher = longer survival) 100 % of control; (endpoint: median survival time, dose: 13.5 mg/kg/injection, schedule: Q01DX001 (ip), vehicle: Klucel (hydroxypropylcellulose) (HPC), higher = longer survival) 160 % of control; (endpoint: median survival time, dose: 15.0 mg/kg/injection, schedule: Q01DX005 (ip), vehicle: saline + alcohol, higher = longer survival) 71 % of control and 85 % of control; (endpoint: median survival time, dose: 20.0 mg/kg/injection, schedule: Q01DX001 (ip), vehicle: Klucel (hydroxypropylcellulose) (HPC), higher = longer survival) 117 % of control. Also, the T/C reads like this: (endpoint: median survival time, dose: 20.0 mg/kg/injection, schedule: Q01DX001 (ip), vehicle: saline + alcohol, higher = longer survival) 104 % of control and 121 % of control; (endpoint: median survival time, dose: 20.0 mg/kg/injection, schedule: Q01DX001 (ip), vehicle: saline with Tween-80, higher = longer survival) 111 % of control and 119 % of control; (endpoint: median survival time, dose: 26.0 mg/kg/injection, schedule: Q01DX001 (ip), vehicle: saline + alcohol, higher = longer survival) 117 % of control; (endpoint: median survival time, dose: 27.0 mg/kg/injection, schedule: Q01DX001 (ip), vehicle: Klucel (hydroxypropylcellulose) (HPC), higher = longer survival) 105 % of control; (endpoint: median survival time, dose: 30.0 mg/kg/injection, schedule: Q01DX001 (ip), vehicle: saline + alcohol, higher = longer survival) 163 % of control; (endpoint: median survival time, dose: 39.0 mg/kg/injection, schedule: Q01DX001 (ip), vehicle: saline + alcohol, higher = longer survival) 100 % of control. Further, the T/C is 156 % of control (endpoint: median survival time, dose: 40.0 mg/kg/injection, schedule: Q01DX001 (ip), vehicle: Klucel (hydroxypropylcellulose) (HPC), higher = longer survival); 121 % of control (endpoint: median survival time, dose: 40.0 mg/kg/injection, schedule: Q01DX001 (ip), vehicle: saline with Tween-80, higher = longer survival); 217 % of control (endpoint: median survival time, dose: 80.0 mg/kg/injection, schedule: Q01DX001 (ip), vehicle: Klucel (hydroxypropylcellulose) (HPC), higher = longer survival); 95 % of control (endpoint: median survival time, dose: 80.0 mg/kg/injection, schedule: Q01DX001 (ip), vehicle: saline + alcohol, higher = longer survival); 70 % of control (endpoint: median tumor weight (est.), dose: 14.0 mg/kg/injection, schedule: Q01DX001 (ip), vehicle: saline + alcohol, higher = larger tumour); 65 % of control (endpoint: median tumor weight (est.), dose: 27.0 mg/kg/injection, schedule: Q01DX001 (ip), vehicle: saline + alcohol, higher = larger tumour). Also, under “endpoint: median tumor weight (est.), dose: 41.0 mg/kg/injection, schedule: Q01DX001 (ip), vehicle: saline + alcohol, higher = larger tumour”, the T/C is 34 % of control.

Take `CCOC(=O)C(=CNc1cccc(Cl)c1)C(=O)OCC`: the T/C reads like this: (endpoint: mean tumor weight, dose: 148.0 mg/kg/injection, schedule: Q01DX011 (ip), vehicle: other, higher = larger tumour) 153 % of control; (endpoint: mean tumor weight, dose: 222.0 mg/kg/injection, schedule: Q01DX011 (ip), vehicle: other, higher = larger tumour) 113 % of control.

Regarding `OC(CBr)C(O)C(O)C(O)CBr` (centres undefined), the T/C by setting is: (endpoint: mean tumor weight (est.), dose: 75.0 mg/kg/injection, schedule: Q01DX009 (ip), vehicle: Klucel (hydroxypropylcellulose) (HPC), higher = larger tumour) 107 % of control; (endpoint: mean tumor weight (est.), dose: 150.0 mg/kg/injection, schedule: Q01DX009 (ip), vehicle: Klucel (hydroxypropylcellulose) (HPC), higher = larger tumour) 92 % of control; (endpoint: mean tumor weight (est.), dose: 300.0 mg/kg/injection, schedule: Q01DX009 (ip), vehicle: Klucel (hydroxypropylcellulose) (HPC), higher = larger tumour) 63 % of control; (endpoint: mean tumor weight, dose: 25.0 mg/kg/injection, schedule: Q01DX011 (ip), vehicle: saline, higher = larger tumour) 103 % of control; (endpoint: mean tumor weight, dose: 50.0 mg/kg/injection, schedule: Q01DX011 (ip), vehicle: saline, higher = larger tumour) 82 % of control; (endpoint: mean tumor weight, dose: 100.0 mg/kg/injection, schedule: Q01DX011 (ip), vehicle: saline, higher = larger tumour) 46 % of control and 51 % of control. Besides, the T/C was 118 % of control (endpoint: mean tumor weight, dose: 400.0 mg/kg/injection, schedule: Q01DX011 (ip), vehicle: saline, higher = larger tumour); 107 % of control (endpoint: median survival time, dose: 100.0 mg/kg/injection, schedule: Q01DX009 (ip), vehicle: saline, higher = longer survival); 113 % of control (endpoint: median survival time, dose: 150.0 mg/kg/injection, schedule: Q01DX009 (ip), vehicle: Klucel (hydroxypropylcellulose) (HPC), higher = longer survival); 102 % of control (endpoint: median survival time, dose: 200.0 mg/kg/injection, schedule: Q01DX009 (ip), vehicle: saline, higher = longer survival); 107 % of control (endpoint: median survival time, dose: 400.0 mg/kg/injection, schedule: Q01DX009 (ip), vehicle: saline, higher = longer survival).

Turning to `CC1CN=C(C(=O)C(C)C2CCC3C4CC=C5CC(O)CCC5(C)C4CCC23C)C1` (centres undefined), the T/C (endpoint: mean tumor weight, dose: 100.0 mg/kg/injection, schedule: Q01DX011 (sc), vehicle: steriod suspending solution, higher = larger tumour) is 118 % of control.

Consider `C[C@@H](N)[C@@H](O)c1ccccc1`, for which the T/C under setting [1] was 91 % of control, the T/C under setting [2] is 67 % of control and the T/C under setting [3] was 45 % of control.

Take `N#Cc1ccc(S(N)(=O)=O)cc1`: the T/C is 52 % of control (endpoint: mean tumor weight, dose: 6.2 mg/kg/injection, schedule: Q01DX011 (ip), vehicle: carboxymethylcellulose (CMC), higher = larger tumour) and 66 % of control (endpoint: mean tumor weight, dose: 12.5 mg/kg/injection, schedule: Q01DX011 (ip), vehicle: carboxymethylcellulose (CMC), higher = larger tumour).

Consider `CS(=O)(=O)OC[C@@H](O)[C@@H](O)COS(C)(=O)=O`, for which the T/C reads like this: (endpoint: mean tumor weight, dose: 62.5 mg/kg/injection, schedule: Q01DX011 (ip), vehicle: saline, higher = larger tumour) 71 % of control; (endpoint: mean tumor weight, dose: 250.0 mg/kg/injection, schedule: Q01DX011 (ip), vehicle: saline, higher = larger tumour) 115 % of control; (endpoint: mean tumor weight, dose: 500.0 mg/kg/injection, schedule: Q01DX011 (ip), vehicle: saline, higher = larger tumour) 94 % of control; (endpoint: mean tumor weight, dose: 750.0 mg/kg/injection, schedule: Q01DX011 (ip), vehicle: other, higher = larger tumour) 100 % of control; (endpoint: mean tumor weight, dose: 1000.0 mg/kg/injection, schedule: Q01DX011 (ip), vehicle: other, higher = larger tumour) 98 % of control.

For the compound `[CH3][Sn]([CH3])([CH3])[O]C(=O)CCl`, the T/C is 100 % of control (endpoint: median survival time, dose: 0.19 mg/kg/injection, schedule: Q01DX009 (ip), vehicle: saline, higher = longer survival); 104 % of control (endpoint: median survival time, dose: 0.38 mg/kg/injection, schedule: Q01DX009 (ip), vehicle: saline, higher = longer survival); 88 % of control and 97 % of control (endpoint: median survival time, dose: 0.75 mg/kg/injection, schedule: Q01DX009 (ip), vehicle: saline, higher = longer survival).

In the case of `O=C1N(Br)C(=O)C(c2ccc(Cl)cc2)(c2ccc(Cl)cc2)N1Br`, the T/C reads like this: (endpoint: median survival time, dose: 3.12 mg/kg/injection, schedule: Q01DX009 (ip), vehicle: Klucel (hydroxypropylcellulose) (HPC), higher = longer survival) 100 % of control; (endpoint: median survival time, dose: 6.25 mg/kg/injection, schedule: Q01DX009 (ip), vehicle: Klucel (hydroxypropylcellulose) (HPC), higher = longer survival) 97 % of control; (endpoint: median survival time, dose: 12.5 mg/kg/injection, schedule: Q01DX009 (ip), vehicle: Klucel (hydroxypropylcellulose) (HPC), higher = longer survival) 102 % of control; (endpoint: median survival time, dose: 25.0 mg/kg/injection, schedule: Q01DX009 (ip), vehicle: Klucel (hydroxypropylcellulose) (HPC), higher = longer survival) 96 % of control.

With `Oc1ccc2ccccc2c1N=Nc1ccccc1`, the T/C by setting is: (endpoint: mean tumor weight, dose: 25.0 mg/kg/injection, schedule: Q01DX011 (ip), vehicle: carboxymethylcellulose (CMC), higher = larger tumour) 78 % of control; (endpoint: mean tumor weight, dose: 50.0 mg/kg/injection, schedule: Q01DX011 (ip), vehicle: carboxymethylcellulose (CMC), higher = larger tumour) 75 % of control; (endpoint: mean tumor weight, dose: 100.0 mg/kg/injection, schedule: Q01DX011 (ip), vehicle: carboxymethylcellulose (CMC), higher = larger tumour) 84 % of control; (endpoint: mean tumor weight, dose: 200.0 mg/kg/injection, schedule: Q01DX011 (ip), vehicle: carboxymethylcellulose (CMC), higher = larger tumour) 43 % of control.

Consider `CCn1cnc2c(=S)nc(N)[nH]c21`, for which the T/C runs as follows: (endpoint: mean tumor weight, dose: 3.8 mg/kg/injection, schedule: Q01DX011 (ip), vehicle: other, higher = larger tumour) 81 % of control; (endpoint: mean tumor weight, dose: 7.5 mg/kg/injection, schedule: Q01DX011 (ip), vehicle: other, higher = larger tumour) 63 % of control; (endpoint: mean tumor weight, dose: 15.0 mg/kg/injection, schedule: Q01DX011 (ip), vehicle: other, higher = larger tumour) 17 % of control.

These data come from PubChem BioAssay AID270 (DTP/NCI, 2004).
